# Experimental data taken from PubChem BioAssay (NCI).
# “And” between values parts separate entries of the source, which are not always exact repeats. Identical values can stand only once.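 Assay format: 96-well plates, 48-hour exposure. GI50: concentration for 50% inhibition of growth. Definition used: TGI = concentration required for complete inhibition of growth.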
# Key:
# Experiment in all cases: DTP human tumour cell line panel, 48 h
# [1] = tested on: MALME-3M melanoma
# [2] = tested on: SF-268 CNS
# [3] = tested on: COLO 205 colon
# [4] = tested on: SN12C renal
# [5] = tested on: HCT-15 colon
# [6] = tested on: SK-MEL-5 melanoma
# [7] = tested on: LXFL 529 NSCLC
# [8] = tested on: RPMI-8226 leukemia
# [9] = tested on: 786-0 renal
# [10] = tested on: XF 498 CNS
SMILES,TGI [1],TGI [2],TGI [3],TGI [4],TGI [5],TGI [6],TGI [7],TGI [8],TGI [9],TGI [10],GI50 [2],GI50 [3],GI50 [4],GI50 [6],GI50 [8],GI50 [9],GI50 [1],GI50 [5],GI50 [10],GI50 [7]
CCCCCCCC(=O)OCC1OC(n2cc(F)c(=O)[nH]c2=O)C(NC(=O)OCc2ccccc2)C(O)C1O (centres undefined),> 100 µM,> 100 µM,> 100 µM,> 100 µM,> 100 µM,23.7 µM,> 100 µM,91.7 µM,> 100 µM,,,,,,,,,,,
CCC(=O)C(C)C(=O)C(=O)C(=O)OC (centres undefined),> 100 µM,> 100 µM,> 100 µM,> 100 µM,> 100 µM,> 100 µM,> 100 µM,> 100 µM,> 100 µM,> 100 µM,,,,,,,,,,
O=C1[C@H]2ON(c3ccccc3)C(c3ccccc3F)[C@H]2C(=O)N1c1ccc(Cc2ccc(N3C(=O)[C@@H]4ON(c5ccccc5)C(c5ccccc5F)[C@@H]4C3=O)cc2)cc1 (some centres undefined),> 100 µM,> 100 µM,> 100 µM,> 100 µM,> 100 µM,> 100 µM,> 100 µM,> 100 µM,> 100 µM,> 100 µM,,,,,,,,,,
O=C(O)C(C(=O)C(=O)C(C(=O)O)c1ccc(Cl)cc1)c1ccc(Cl)cc1 (centres undefined),10.4 µM,11.9 µM,18.8 µM,10.8 µM,,,10.7 µM,5.91 µM,15.7 µM,5.95 µM,,,,,,,,,,
CC1=C(C(=O)Nc2ccc([N+](=O)[O-])cc2)C(c2ccccc2O)C(C(=O)Nc2ccc([N+](=O)[O-])cc2)=C(C)N1,49.4 µM,49 µM,40.8 µM,55.5 µM,,31.8 µM,48.7 µM,53.4 µM,64.8 µM,31.2 µM,,,,,,,,,,
O=[P+](O)c1cc2ccccc2c2ccccc12,,> 100 µM,> 100 µM,> 100 µM,,> 100 µM,> 100 µM,> 100 µM,> 100 µM,,,,,,,,,,,
COc1ccc(OC)c(NCC#N)c1,> 100 µM,> 100 µM,> 100 µM,> 100 µM,> 100 µM,> 100 µM,,> 100 µM,> 100 µM,> 100 µM,,,,,,,,,,
CN(C(=O)C12C3(C(=O)C(C)(C)C)C4C5(C#N)C3C1(C(=O)C(C)(C)C)C5C42C(=O)C(C)(C)C)C(C)(C)C (centres undefined),> 50 µM,> 50 µM,> 50 µM,> 50 µM,> 50 µM,> 50 µM,> 50 µM,,> 50 µM,> 50 µM,,,,,,,,,,
CN(C)C(=S)/N=c1\ss/c(=N\C(=S)N(C)C)n1-c1ccc(Cl)cc1,,> 100 µM,> 100 µM,> 100 µM,> 100 µM,,> 100 µM,> 100 µM,> 100 µM,> 100 µM,,,,,,,,,,
O=c1nc(NC(c2ccccc2)(c2ccccc2)c2ccccc2)ccn1CCO,> 100 µM,> 100 µM,> 100 µM,> 100 µM,> 100 µM,,> 100 µM,> 100 µM,> 100 µM,,,,,,,,,,,
CCOC(=O)[C@H]1CSC[C@@H](C(=O)OC)N1,> 100 µM,> 100 µM,> 100 µM,> 100 µM,> 100 µM,> 100 µM,> 100 µM,> 100 µM,> 100 µM,,,,,,,,,,,
CSc1nc(SC)c2c(C(N)=S)[nH]nc2n1,88 µM,> 100 µM,35.7 µM,> 100 µM,> 100 µM,34.1 µM,> 100 µM,67.8 µM,> 100 µM,,,,,,,,,,,
COC(=O)c1ccc(NC(=O)c2cc(OC)c(OC)c(OC)c2)cc1,> 100 µM,> 100 µM,,,,,> 100 µM,,> 100 µM,,,,,,,,,,,
CCOC(=O)c1cc2c(cn1)[nH]c1cccc(N)c12,> 100 µM,> 100 µM,> 100 µM,> 100 µM,,> 100 µM,> 100 µM,,> 100 µM,> 100 µM,,,,,,,,,,
COc1cc(C=O)c(-c2cc3c(cc2C2(C)OCCS2)OCO3)c(OC)c1OC (centres undefined),90.8 µM,> 239 µM,16.1 µM,49.8 µM,30.2 µM,35.3 µM,54 µM,> 160 µM,23.6 µM,37.1 µM,,,,,,,,,,
CCCCN=C(NC#N)N(Cc1ccccc1)Cc1ccccc1,> 100 µM,> 100 µM,32.5 µM,82 µM,29.8 µM,26.1 µM,32.8 µM,40.8 µM,> 100 µM,,,,,,,,,,,
O=C1C2CC=CCC2C(=O)C12CCc1ccccc12 (centres undefined),> 100 µM,> 100 µM,> 100 µM,> 100 µM,> 100 µM,,> 100 µM,,> 100 µM,> 100 µM,,,,,,,,,,
OC(C1CO1)C(O)C1CO1 (centres undefined),125 µM and 263 µM,114 µM and 513 µM,127 µM and 285 µM,126 µM and 249 µM,131 µM and 406 µM,85.6 µM and 164 µM,,150 µM and 861 µM,48.5 µM and 139 µM,133 µM,27.4 µM and 27.5 µM,124 µM,13.9 µM,43.9 µM,84 µM,18.7 µM,,,,
Cc1ccc(C(=O)N2c3ccccc3N(C)n3cccc3C2CC(=O)O)cc1 (centres undefined),> 100 µM,> 100 µM,> 100 µM,> 100 µM,> 100 µM,> 100 µM,> 100 µM,> 100 µM,> 100 µM,> 100 µM,,,,,,,,,,

SMILES,TGI [1],TGI [2],TGI [3],TGI [4],TGI [5],TGI [6],TGI [7],TGI [8],TGI [9],TGI [10],GI50 [2],GI50 [3],GI50 [4],GI50 [6],GI50 [8],GI50 [9],GI50 [1],GI50 [5],GI50 [10],GI50 [7]
COc1cc(F)cc([C@@H](CO)NC(=O)[C@@H](C)N2Cc3ccc(-c4nc(NC5CCOCC5)ncc4Cl)cc3C2=O)c1,< 0.01 µM,99.6 µM,2.37 µM,> 100 µM,> 86.7 µM,14.8 µM,,38.1 µM,> 100 µM,,14.1 µM,< 0.01 µM,1.33 µM,0.405 µM,1.83 µM,9.23 µM,< 0.01 µM,6.08 µM,,
Oc1ccc2ccccc2c1C1NN=C(c2ccccc2)S1 (centres undefined),21 µM,29.1 µM,16.3 µM,35.7 µM,> 50.8 µM,2 µM,,> 100 µM,> 34.6 µM,,0.418 µM,0.55 µM,0.61 µM,0.342 µM,0.237 µM,0.424 µM,1.56 µM,0.399 µM,,
COc1ccc(-c2cn(-c3cccc(C(=O)/C=C/c4ccc(O)c(OC)c4)c3)c(=O)[nH]2)cc1,24.4 µM,14.7 µM,15.3 µM,> 100 µM,32.8 µM,11 µM,,3.68 µM,24.5 µM,,3.32 µM,4.79 µM,3.47 µM,2.69 µM,1.35 µM,4.32 µM,3.98 µM,2.64 µM,,
CC(C)N1CCC2(CC1)NNc1ncccc1-n1cccc12,> 100 µM,> 100 µM,> 100 µM,> 100 µM,,> 100 µM,,> 100 µM,> 100 µM,> 100 µM,,,,,,,,,,
CC(C)[NH-].CC(C)[NH-].O.O.[Cl][Pt+2][Cl],57.8 µM,231 µM,98.7 µM,133 µM,208 µM,59.9 µM,,281 µM,126 µM,51.6 µM,38.1 µM,30.1 µM,35.9 µM,21.2 µM,38.1 µM,33.8 µM,19.4 µM,35.7 µM,16 µM,
COc1ccc2nc3cc([N+](=O)[O-])ccc3c(NCCCN(CCO)CCO)c2c1,5.3 µM,10.8 µM,9.12 µM,14.7 µM,25.4 µM,4.69 µM,,8.9 µM,21.1 µM,,4.09 µM,2.64 µM,3.92 µM,1.8 µM,2.28 µM,4.09 µM,2.21 µM,12.8 µM,,
NC(CC(=O)Nc1ccc(Cl)cc1)=Nc1ccccc1,> 100 µM,> 100 µM,> 100 µM,> 100 µM,,> 100 µM,> 100 µM,,> 100 µM,> 100 µM,,,,,,,,,,
O=C(NCCCCCCNC(=O)n1cc(F)c(=O)[nH]c1=O)NCCCOCCOCCOCCOCCOCCOCCOCCOCCOCCOCCOCCOCCOCCOCCOCCOCCOCCOCCOCCOCCOCCCNC(=O)C(O)C(O)C(OC1OC(CO)C(O)C(O)C1O)C(O)CO (centres undefined),> 100 µM,> 100 µM,> 100 µM,> 100 µM,> 100 µM,> 100 µM,,> 100 µM,> 100 µM,> 100 µM,,,,,,,,,,
COc1cc(-c2csc(NC(=O)Nc3cc(C(F)(F)F)cc(C(F)(F)F)c3)n2)cc(OC)c1OC,7.32 µM,15.7 µM,3.45 µM,11.8 µM,10.9 µM,3.24 µM,,3.76 µM,11.8 µM,,3.64 µM,1.8 µM,3 µM,1.57 µM,0.967 µM,3.17 µM,2.15 µM,2.51 µM,,
O=c1cc(-c2ccccc2)nc(/C=C(\O)c2ccncc2)n1-c1ccccc1,> 100 µM,> 100 µM,> 100 µM,> 100 µM,> 100 µM,> 100 µM,> 100 µM,,> 100 µM,,,,,,,,,,,
Nc1nc(NC2C=C(CO)C(O)C2O)c([N+](=O)[O-])c(=O)[nH]1 (centres undefined),> 100 µM,> 100 µM,> 100 µM,> 100 µM,> 100 µM,> 100 µM,> 100 µM,,> 100 µM,> 100 µM,,,,,,,,,,
O=C(O)c1ccc2c3c(ncnc13)-c1ccccc1C2=O,1.58 µM,> 100 µM,16.7 µM,> 87.2 µM,> 48 µM,2.65 µM,,> 88.7 µM,> 100 µM,,37.1 µM,3.25 µM,4.26 µM,1.34 µM,51.3 µM,37 µM,0.517 µM,2.47 µM,,
O=C(NCCN1CCC(O)CC1)c1cc2c(o1)C(=O)c1ccccc1C2=O,0.0885 µM,3.55 µM,0.228 µM,0.354 µM,0.624 µM,0.275 µM,,4.72 µM,2.96 µM,,1.27 µM,0.078 µM,0.175 µM,0.141 µM,1.58 µM,1.44 µM,0.0272 µM,0.21 µM,,
CC(C)(c1ccc(Oc2ccc(C#N)c(C#N)c2)cc1)c1ccc(Oc2ccc(C#N)c(C#N)c2)cc1,> 100 µM,> 100 µM,> 100 µM,> 100 µM,,> 100 µM,> 100 µM,> 100 µM,> 100 µM,,> 100 µM,> 100 µM,> 100 µM,> 100 µM,> 100 µM,> 100 µM,> 100 µM,,,> 100 µM
Cc1ccc(C(=O)/C(=C\c2ccc([N+](=O)[O-])cc2)S(=O)Cc2ccc(F)cc2)cc1 (centres undefined),3.33 µM,3.36 µM,3.76 µM,3.42 µM,3.5 µM,3.32 µM,,4.33 µM,2.68 µM,,1.69 µM,1.92 µM,1.7 µM,1.76 µM,1.02 µM,1.37 µM,1.57 µM,1.45 µM,,
O=C(Nc1ccc2[nH]c(C(=O)N3CC(CCl)c4c3cc([N+](=O)[O-])c3ccccc43)cc2c1)c1cc2ccccc2o1 (centres undefined),> 1100 µM,> 1100 µM,> 1100 µM,> 1100 µM,> 1100 µM,> 1100 µM,,> 1100 µM,> 1100 µM,,> 1100 µM,> 1100 µM,> 1100 µM,> 1100 µM,> 1100 µM,> 1100 µM,> 1100 µM,> 1100 µM,,
O=C(O)C1C(=O)Oc2c(cccc2[N+](=O)[O-])C1O (centres undefined),> 100 µM,> 100 µM,> 100 µM,> 100 µM,> 100 µM,> 100 µM,,> 100 µM,> 100 µM,,,,,,,,,,,
c1cncc(-c2nc3ccccc3s2)c1,> 100 µM,> 100 µM,> 100 µM,> 100 µM,> 100 µM,> 100 µM,,> 100 µM,> 100 µM,,> 100 µM,> 100 µM,> 100 µM,> 100 µM,99.4 µM,> 100 µM,> 100 µM,> 100 µM,,
O=C1NC(=O)C(c2ccc(Cl)cc2)=C1Nc1ccc(Cl)c(C(=O)O)c1,> 25 µM,> 25 µM,> 25 µM,> 25 µM,> 25 µM,> 25 µM,,> 25 µM,> 25 µM,,> 25 µM,> 25 µM,> 25 µM,> 25 µM,> 25 µM,> 25 µM,> 25 µM,> 25 µM,,
